From patent publication US20100099670A1, “Benzoquinazoline derivatives” (priority 2007, published 2010)

Biological target: T1, human PcaR (Homo sapiens, UniProt P41180)
T1 construct: expressed in transfected cells; host or cells: CCL39 fibroblasts (hamster lung fibroblast line), stably transfected
T1 sequence (P41180 20-1078): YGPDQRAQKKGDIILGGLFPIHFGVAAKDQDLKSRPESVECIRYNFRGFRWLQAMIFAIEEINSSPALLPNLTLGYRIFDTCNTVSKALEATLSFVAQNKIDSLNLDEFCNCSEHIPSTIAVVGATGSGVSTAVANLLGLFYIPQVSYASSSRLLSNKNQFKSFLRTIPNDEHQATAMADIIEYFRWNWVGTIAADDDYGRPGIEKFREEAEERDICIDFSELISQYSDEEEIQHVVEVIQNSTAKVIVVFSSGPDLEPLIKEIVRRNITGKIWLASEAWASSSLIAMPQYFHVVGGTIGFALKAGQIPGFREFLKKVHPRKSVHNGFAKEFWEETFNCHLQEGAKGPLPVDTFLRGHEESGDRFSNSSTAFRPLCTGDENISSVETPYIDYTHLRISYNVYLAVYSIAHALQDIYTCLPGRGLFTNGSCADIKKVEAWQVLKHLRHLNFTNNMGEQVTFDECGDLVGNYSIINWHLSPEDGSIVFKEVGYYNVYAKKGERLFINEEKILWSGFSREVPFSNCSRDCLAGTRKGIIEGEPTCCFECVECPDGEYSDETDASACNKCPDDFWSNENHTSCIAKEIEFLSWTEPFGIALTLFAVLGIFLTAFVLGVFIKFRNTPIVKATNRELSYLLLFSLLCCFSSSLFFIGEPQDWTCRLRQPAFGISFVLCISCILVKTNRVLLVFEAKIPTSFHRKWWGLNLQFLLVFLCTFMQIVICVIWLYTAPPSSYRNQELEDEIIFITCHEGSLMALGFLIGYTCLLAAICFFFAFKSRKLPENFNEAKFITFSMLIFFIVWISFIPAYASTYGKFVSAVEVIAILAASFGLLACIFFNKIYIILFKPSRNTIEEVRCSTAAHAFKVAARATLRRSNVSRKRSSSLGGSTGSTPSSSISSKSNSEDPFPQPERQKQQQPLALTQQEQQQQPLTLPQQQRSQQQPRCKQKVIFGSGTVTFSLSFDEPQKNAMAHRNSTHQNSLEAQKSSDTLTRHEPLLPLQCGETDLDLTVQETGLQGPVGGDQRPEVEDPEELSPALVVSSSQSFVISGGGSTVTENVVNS
Test: Inhibition of intracellular calcium transients stimulated by extracellular calcium (assay for intracellular free calcium)
Type: cell-based
Details: CCL39 fibroblasts stably transfected with human PcaR; Fluo-3 AM; stimulated with calcium 2.5 mM final; read-out: IC50 (nm) (range in which compound fall)
Protocol: Inhibition of Intracellular Calcium Transients Stimulated by Extracellular Calcium
In the test system, which is described in detail below, the following ranges of IC50 values are found:
Assay for Intracellular Free Calcium:
A method to determine antagonism at the PcaR consists in measuring the inhibition of intracellular calcium transients stimulated by extracellular calcium.
CCL39 fibroblasts stably transfected with human PcaR are seeded at 40,000 cells/well into 96-well Viewplates and incubated for 24 hours. Medium is then removed and replaced with fresh medium containing 2 μM Fluo-3 AM (Molecular Probes, Leiden, The Netherlands), In routine experiments, cells are incubated at 37° C., 5% CO2 for 1 h. Afterwards, plates are washed twice with mHBS and wells are refilled with 100 μl mHBS containing the test compounds. Incubation is continued at room temperature for 15 minutes. To record changes of intracellular free calcium, plates are transferred to fluorescence-imaging plate reader (Molecular Devices, Sunnyvale, Calif., USA). A baseline consisting in 5 measurements of 0.4 seconds each (laser excitation 488 nm) is recorded. Cells are then stimulated with calcium (2.5 mM final), and fluorescence changes recorded over a period of 3 minutes.

SMILES | IC50
C#CCOc1ccc2nc(C(=O)c3ccc4c(c3)OC=CO4)nc(-c3ccc(C(C)C)cc3)c2c1 [Example 4, Benzo[1,4]dioxin-6-yl-[4-(4-isopropyl-phenyl)-6-propargyloxy-quinazolin-2-yl]-methanone] | 0.5 to 1 nM
C#CCOc1ccc2nc(C(=O)c3nc4ccc(OC)cc4s3)nc(-c3ccc(C(C)C)cc3)c2c1 [Example 11, [4-(4-Isopropyl-phenyl)-6-propargyloxy-quinazolin-2-yl]-(6-methoxy-benzo-thiazol-2-yl)-methanone] | 5 to 10 nM
C#CCOc1ccc2nc(C(=O)c3ccc4occc4c3)nc(-c3ccc(C(C)C)cc3)c2c1 [Example 8, Benzofuran-5-yl-[4-(4-isopropyl-phenyl)-6-propargyloxy-quinazolin-2-yl]-methanone] | 0.2 to 0.5 nM
C#CCOc1ccc2nc(C(=O)c3ccc4c(c3)C(C)(C)CCC4(C)C)nc(-c3ccc(C(C)C)cc3)c2c1 [Example 9, [4-(4-Isopropyl-phenyl)-6-propargyloxy-quinazolin-2-yl]-(5,5,8,8-tetramethyl-5,6,7,8-tetrahydro-naphthalen-2-yl)-methanone] | 1 to 5 nM
C#CCOc1ccc2nc(C(=O)c3ccc4c(c3)N(C)CCO4)nc(-c3ccc(C(C)C)cc3)c2c1 [Example 10, [4-(4-Isopropyl-phenyl)-6-propargyloxy-quinazolin-2-yl]-(4-methyl-3,4-dihydro-2H-benzo[1,4]oxazin-6-yl)-methanone] | 1 to 5 nM
C#CCOc1ccc2nc(C(=O)c3ccc4c(c3)-c3ccccc3C4=O)nc(-c3ccc(C(C)C)cc3)c2c1 [Example 12, 3-[4-(4-Isopropyl-phenyl)-6-propargyloxy-quinazolin-2-carbonyl]-fluoren-9-one] | 0.2 to 0.5 nM

Next, values leading:

IC50 | SMILES
0.5 to 1 nM | C#CCOc1ccc2nc(C(=O)c3ccc4c(c3)OCCO4)nc(-c3ccc(C(C)C)cc3)c2c1 [Example 1, (2,3-Dihydro-benzo[1,4]dioxin-6-yl)-[4-(4-isopropyl-phenyl)-6-propargyloxy-quinazolin-2-yl]-methanone]
0.2 to 0.5 nM | C#CCOc1ccc2nc(C(=O)c3ccc4c(c3)CCO4)nc(-c3ccc(C(C)C)cc3)c2c1 [Example 3, (2,3-Dihydro-benzofuran-5-yl)-[4-(4-isopropyl-phenyl)-6-propargyloxy-quinazolin-2-yl]-methanone]
0.5 to 1 nM | C#CCOc1ccc2nc(C(=O)c3ccc4c(c3)CCC4)nc(-c3ccc(C(C)C)cc3)c2c1 [Example 5, Indan-5-yl-[4-(4-isopropyl-phenyl)-6-propargyloxy-quinazolin-2-yl]-methanone]
0.2 to 0.5 nM | C#CCOc1ccc2nc(C(=O)c3ccc4c(c3)OCCN4C)nc(-c3ccc(C(C)C)cc3)c2c1 [Example 7, [4-(4-Isopropyl-phenyl)-6-propargyloxy-quinazolin-2-yl]-(4-methyl-3,4-dihydro-2H-benzo[1,4]oxazin-7-yl)-methanone]
0.2 to 0.5 nM | C#CCOc1ccc2nc(C(=O)c3ccc4c(c3)OCC4)nc(-c3ccc(C(C)C)cc3)c2c1 [Example 6, (2,3-Dihydro-benzofuran-6-yl)-[4-(4-isopropyl-phenyl)-6-propargyloxy-quinazolin-2-yl]-methanone]
0.2 to 0.5 nM | C#CCOc1ccc2nc(C(=O)c3ccc4c(c3)OCO4)nc(-c3ccc(C(C)C)cc3)c2c1 [Example 2, Benzo[1,3]dioxol-5-yl-[4-(4-isopropyl-phenyl)-6-propargyloxy-quinazolin-2-yl]-methanone]
